Test results as given in patent US12516039B2, “N-linked isoquinoline amides as LRRK2 inhibitors, pharmaceutical compositions, and uses thereof” (Merck Sharp & Dohme LLC, priority 2020, dated 2026).

Target: T1, GST-tagged truncated human mutant G2019S LRRK2 (Homo sapiens, UniProt Q5S007, G2019S)
T1 construct: GST-tagged truncated human mutant G2019S LRRK2; purchased Life Technologies Corporation (Carlsbad, CA)
Assay: LRRK2 G2019S Km ATP LanthaScreen assay
Assay type: biochemical
Settings: 134 μM ATP (Km ATP), LRRKtide substrate, mean of several tests, read-out: LRRK2 pIC50 (converted)
Procedure, shortened: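 IC50 values are means of repeat runs, fitted with a 4-parameter logistic to the 520/495 nm TR-FRET ratio from a Tb-labeled anti-phospho-LRRKtide antibody added with EDTA. Reactions ran 90 min at room temperature at Km ATP (134 μM) with fluorescein-LRRKtide, after 15-min compound preincubation with truncated GST-tagged G2019S LRRK2.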

T1 sequence (Q5S007 970-2527 G2019S limits assumed): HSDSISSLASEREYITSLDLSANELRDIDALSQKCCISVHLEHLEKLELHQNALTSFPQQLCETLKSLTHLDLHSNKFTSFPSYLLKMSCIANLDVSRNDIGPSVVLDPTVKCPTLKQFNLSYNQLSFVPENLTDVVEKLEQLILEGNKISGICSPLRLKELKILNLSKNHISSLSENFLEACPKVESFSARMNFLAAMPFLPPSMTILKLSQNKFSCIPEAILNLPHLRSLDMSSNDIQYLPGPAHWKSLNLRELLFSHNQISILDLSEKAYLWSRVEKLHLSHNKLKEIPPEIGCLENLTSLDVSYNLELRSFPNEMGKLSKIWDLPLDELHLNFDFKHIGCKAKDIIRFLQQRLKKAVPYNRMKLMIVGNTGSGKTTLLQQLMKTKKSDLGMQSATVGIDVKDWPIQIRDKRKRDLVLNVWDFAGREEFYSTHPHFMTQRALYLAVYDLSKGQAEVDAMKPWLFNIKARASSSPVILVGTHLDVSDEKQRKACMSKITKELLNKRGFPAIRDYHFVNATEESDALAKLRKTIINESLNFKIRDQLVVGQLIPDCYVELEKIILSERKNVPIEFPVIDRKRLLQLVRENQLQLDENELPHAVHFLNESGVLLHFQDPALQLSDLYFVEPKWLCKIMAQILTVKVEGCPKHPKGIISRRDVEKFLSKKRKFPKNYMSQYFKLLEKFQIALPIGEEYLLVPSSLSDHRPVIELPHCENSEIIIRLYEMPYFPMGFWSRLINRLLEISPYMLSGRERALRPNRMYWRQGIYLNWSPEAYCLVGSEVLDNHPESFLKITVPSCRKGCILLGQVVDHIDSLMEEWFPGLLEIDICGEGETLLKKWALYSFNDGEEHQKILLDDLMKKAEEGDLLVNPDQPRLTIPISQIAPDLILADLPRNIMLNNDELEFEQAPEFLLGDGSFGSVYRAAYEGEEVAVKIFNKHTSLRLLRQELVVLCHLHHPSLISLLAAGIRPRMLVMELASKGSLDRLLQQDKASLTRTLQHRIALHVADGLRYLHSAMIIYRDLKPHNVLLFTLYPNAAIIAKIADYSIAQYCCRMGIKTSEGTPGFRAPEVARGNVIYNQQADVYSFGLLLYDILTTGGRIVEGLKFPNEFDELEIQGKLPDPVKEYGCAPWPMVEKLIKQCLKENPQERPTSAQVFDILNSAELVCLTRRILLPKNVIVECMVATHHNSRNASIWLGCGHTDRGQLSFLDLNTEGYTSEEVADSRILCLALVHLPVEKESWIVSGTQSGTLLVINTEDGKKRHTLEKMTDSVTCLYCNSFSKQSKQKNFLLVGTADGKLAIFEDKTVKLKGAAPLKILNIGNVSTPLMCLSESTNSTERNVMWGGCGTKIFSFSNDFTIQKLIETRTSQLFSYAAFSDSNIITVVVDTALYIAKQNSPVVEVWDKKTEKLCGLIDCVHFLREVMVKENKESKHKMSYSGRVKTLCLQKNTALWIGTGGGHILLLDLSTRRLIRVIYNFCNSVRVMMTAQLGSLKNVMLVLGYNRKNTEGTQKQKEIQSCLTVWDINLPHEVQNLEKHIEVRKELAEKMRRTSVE

| SMILES | IC50 |
| --- | --- |
| CCC1C(C(=O)Nc2cc3cc(N4CCN(C5(C)COCC5F)CC4)c(Cl)cc3cn2)C1c1ccn(C)n1 (single isomer, unassigned) [Ex-10.52, (1R,2R,3R, 1R,2S,3R, or 1S,2R,3S, or 1S,2S,3S)-N-[7-chloro-6-[4-((3R,4R or 3S,4S)-4-fluoro-3-methyl-tetrahydrofuran-3-yl)piperazin-1-yl]-3-isoquinolyl]-2-ethyl-3-(1-methylpyrazol-3-yl)cyclopropanecarboxamide] | 0.603 nM |
| CC1C(C(=O)Nc2cc3cc(N4CCN(C5(C)COCC5O)CC4)c(Cl)cc3cn2)C1c1ccn(C)n1 (single isomer, unassigned) [Ex-10.53, (1R,2R,3R, 1R,2S,3R, or 1S,2R,3S, or 1S,2S,3S)-N-[7-chloro-6-[4-((3R,4R or 3S,4S)-4-hydroxy-3-methyl-tetrahydrofuran-3-yl)piperazin-1-yl]-3-isoquinolyl]-2-methyl-3-(1-methylpyrazol-3-yl)cyclopropanecarboxamide] | 0.0813 nM |
| Cn1ncc(C2CC2C(=O)Nc2cc3cc(N4CCN(C5(C)COCC5F)CC4)c(Cl)cc3cn2)c1C(F)(F)F (single isomer, unassigned) [Ex-10.61, (1R,2R or 1S,2S)-N-[7-chloro-6-[4-((3R,4R or 3S,4S)-4-fluoro-3-methyl-tetrahydrofuran-3-yl)piperazin-4-ium-1-yl]-3-isoquinolyl]-2-[1-methyl-5-(trifluoromethyl)pyrazol-4-yl]cyclopropanecarboxamide] | 3.02 nM |
| Cn1ncc(C2CC2C(=O)Nc2cc3cc(N4CCN(C5(C)COCC5F)CC4)c(Cl)cc3cn2)c1C(F)(F)F (single isomer, unassigned) [Ex-10.62, (1R,2R or 1S,2S)-N-[7-chloro-6-[4-((3R,4R or 3S,4S)-4-fluoro-3-methyl-tetrahydrofuran-3-yl)piperazin-4-ium-1-yl]-3-isoquinolyl]-2-[1-methyl-5-(trifluoromethyl)pyrazol-4-yl]cyclopropanecarboxamide] | 0.0813 nM |
| CCC1C(C(=O)Nc2cc3cc(N4CCN(C5(C)COCC5O)CC4)c(Cl)cc3cn2)C1c1ccn(C)n1 (single isomer, unassigned) [Ex-10.65, (1R,2R,3R, or 1R,2S,3R, or 1S,2R,3S, or 1S,2S,3S)-N-[7-chloro-6-[4-( (3R,4R or 3S,4S)-4-hydroxy-3-methyl-tetrahydrofuran-3-yl)piperazin-1-yl]-3-isoquinolyl]-2-ethyl-3-(1-methylpyrazol-3-yl)cyclopropanecarboxamide] | 0.0813 nM |
| CC1(N2CCN(c3cc4cc(NC(=O)C5CCC5C#N)ncc4cc3Cl)CC2)COCC1F (single isomer, unassigned) [Ex-10.67, (1R,2R or 1S,2S)-N-[7-chloro-6-[4-((3R,4R or 3S,4S)-4-fluoro-3-methyl-tetrahydrofuran-3-yl)piperazin-1-yl]-3-isoquinolyl]-2-cyano-cyclobutanecarboxamide] | 0.102 nM |
| CC1(N2CCN(c3cc4cc(NC(=O)C5CCC5C#N)ncc4cc3Cl)CC2)COCC1F (single isomer, unassigned) [Ex-10.68, (1R,2R or 1S,2S)-N-[7-chloro-6-[4-((3R,4R or 3S,4S)-4-fluoro-3-methyl-tetrahydrofuran-3-yl)piperazin-1-yl]-3-isoquinolyl]-2-cyano-cyclobutanecarboxamide] | 0.0813 nM |
| CC1(N2CCN(c3cc4cc(NC(=O)C5CC5C5CCOCC5)ncc4cc3Cl)CC2)COCC1F (single isomer, unassigned) [Ex-10.69, (1R,2R or 1S,2S)-N-[7-chloro-6-[4-((3R,4R or 3S,3S)-4-fluoro-3-methyl-tetrahydrofuran-3-yl)piperazin-1-yl]-3-isoquinolyl]-2-tetrahydropyran-4-yl-cyclopropanecarboxamide] | 0.0813 nM |
| CC1(N2CCN(c3cc4cc(NC(=O)C5CC5C(F)F)ncc4cc3Cl)CC2)COCC1F (single isomer, unassigned) [Ex-10.75, (1R,2R or 1S,2S)-N-[7-chloro-6-[4-((3R,4R or 3S,4S)-4-fluoro-3-methyl-tetrahydrofuran-3-yl)piperazin-1-yl]-3-isoquinolyl]-2-(difluoromethyl)cyclopropanecarboxamide] | 0.219 nM |
| CC1(N2CCN(c3cc4cc(NC(=O)C5CC5C(F)F)ncc4cc3Cl)CC2)COCC1F (single isomer, unassigned) [Ex-10.76, (1R,2R or 1S,2S)-N-[7-chloro-6-[4-((3R,4R or 3S,4S)-4-fluoro-3-methyl-tetrahydrofuran-3-yl)piperazin-1-yl]-3-isoquinolyl]-2-(difluoromethyl)cyclopropanecarboxamide] | 0.0813 nM |
| CC1(N2CCN(c3cc4cc(NC(=O)C5CC5C(F)F)ncc4cc3Cl)CC2)COCC1F (single isomer, unassigned) [Ex-10.77, (1R,2R or 1S,2S)-N-[7-chloro-6-[4-((3R,4R or 3S,4S)-4-fluoro-3-methyl-tetrahydrofuran-3-yl)piperazin-1-yl]-3-isoquinolyl]-2-(difluoromethyl)cyclopropanecarboxamide] | 0.0813 nM |
| CC1(N2CCN(c3cc4cc(NC(=O)C5CC5C(F)F)ncc4cc3Cl)CC2)COCC1F (single isomer, unassigned) [Ex-10.78, (1R,2R or 1S,2S)-N-[7-chloro-6-[4-((3R,4R or 3S,4S)-4-fluoro-3-methyl-tetrahydrofuran-3-yl)piperazin-1-yl]-3-isoquinolyl]-2-(difluoromethyl)cyclopropanecarboxamide] | 0.0813 nM |
| CC1(N2CCN(c3cc4cc(NC(=O)C5CC56CC6)ncc4cc3Cl)CC2)COCC1F (single isomer, unassigned) [Ex-10.79, (R or S)-N-[7-chloro-6-[4-((3R,4R or 3S,4S)-4-fluoro-3-methyl-tetrahydrofuran-3-yl)piperazin-1-yl]-3-isoquinolyl]spiro[2.2]pentane-2-carboxamide] | 0.0813 nM |
| CC1(N2CCN(c3cc4cc(NC(=O)C5CC56CC6)ncc4cc3Cl)CC2)COCC1F (single isomer, unassigned) [Ex-10.80, (R or S)-N-[7-chloro-6-[4-((3R,4R or 3S,4S)-4-fluoro-3-methyl-tetrahydrofuran-3-yl)piperazin-1-yl]-3-isoquinolyl]spiro[2.2]pentane-2-carboxamide] | 0.123 nM |
| CC1(C2CCOC2)CC1C(=O)Nc1cc2cc(N3CCN(C4(C)COCC4O)CC3)c(Cl)cc2cn1 (single isomer, unassigned) [Ex-10.81, (1R,2R or 1S,2S, or 1R,2S, or 1S,2R)-N-[7-chloro-6-[4-((3R,4R or 3S,4S)-4-hydroxy-3-methyl-tetrahydrofuran-3-yl)piperazin-1-yl]-3-isoquinolyl]-2-methyl-2-tetrahydrofuran-3-yl-cyclopropanecarboxamide] | 0.0813 nM |
| CC1(C2CCOC2)CC1C(=O)Nc1cc2cc(N3CCN(C4(C)COCC4O)CC3)c(Cl)cc2cn1 (single isomer, unassigned) [Ex-10.82, (1R,2R or 1S,2S, or 1R,2S, or 1S,2R)-N-[7-chloro-6-[4-((3R,4R or 3S,4S)-4-hydroxy-3-methyl-tetrahydrofuran-3-yl)piperazin-1-yl]-3-isoquinolyl]-2-methyl-2-tetrahydrofuran-3-yl-cyclopropanecarboxamide] | 0.1 nM |
